# Earlier results, collected in PubChem BioAssay AID1259409 (Chemical Carcinogenesis Research Information System (CCRIS), 2018).
# Test system: rodent chemically induced tumor inhibition, incidence and multiplicity
# Test: CCRIS tumor inhibitor studies
# Conditions: Route [Inhibitor]: ORAL, Promoter: NONE USED
smiles,measurement,setting,value
CCNC(=O)/C=C(C)/C=C/C=C(C)/C=C/C1=C(C)CCCC1(C)C,"tumour outcome (control, treated, inhibition, significance)","Carcinogen: N-METHYL-N-NITROSOUREA, 684-93-5, Dose [Inhibitor]: 2 MMOL/KG DIET DAILY STARTING 12 D AFTER CARCINOGEN TREATMENT THROUGH ABOUT 8 MO AFTER CARCINOGEN DOSE (STUDY DURATION:, Species: RAT, Strain/Sex: F344/MALE, Target Tissue: Type of Lesion: COLON: ADENOMA, Dose [Carcinogen]: 2.5 MG 1/WK FOR 2 WK","16/39 (41%), 10/30 (33%), 20%, not significant"
same,"tumour outcome (control, treated, inhibition, significance)","Carcinogen: N-METHYL-N-NITROSOUREA, 684-93-5, Dose [Inhibitor]: 327 MG/KG DIET DAILY STARTING 1 WK AFTER LAST CARCINOGEN TREATMENT AND CONTINUING FOR 6 MO (STUDY DURATION: 9 MO), Species: HAMSTER, Strain/Sex: SYRIAN/MALE, Target Tissue: Type of Lesion: TRACHEA: BENIGN EPITHELIAL NEOPLASM, Dose [Carcinogen]: 0.5% IN 1 ML PHOSPHATE-BUFFERED SALINE 1/WK FOR 12 WK","6/63 (10%), 12/63 (19%), -90%, not significant"
same,"tumour outcome (control, treated, inhibition, significance)","Carcinogen: N-METHYL-N-NITROSOUREA, 684-93-5, Dose [Inhibitor]: 327 MG/KG DIET DAILY STARTING 1 WK AFTER LAST CARCINOGEN TREATMENT AND CONTINUING FOR 6 MO (STUDY DURATION: 9 MO), Species: HAMSTER, Strain/Sex: SYRIAN/MALE, Target Tissue: Type of Lesion: TRACHEA: CARCINOMA, Dose [Carcinogen]: 0.5% IN 1 ML PHOSPHATE-BUFFERED SALINE 1/WK FOR 12 WK","4/63 (6%), 12/63 (19%), -217%, p<0.05"
same,"tumour outcome (control, treated, inhibition, significance)","Carcinogen: N-METHYL-N-NITROSOUREA, 684-93-5, Dose [Inhibitor]: 327 MG/KG DIET DAILY STARTING 1 WK AFTER LAST CARCINOGEN TREATMENT AND CONTINUING FOR 6 MO (STUDY DURATION: 9 MO), Species: HAMSTER, Strain/Sex: SYRIAN/MALE, Target Tissue: Type of Lesion: TRACHEA: EPITHELIAL NEOPLASM, Dose [Carcinogen]: 0.5% IN 1 ML PHOSPHATE-BUFFERED SALINE 1/WK FOR 12 WK","10/63 (16%), 24/63 (38%), -138%, p<0.01"
same,"tumour outcome (control, treated, inhibition, significance)","Carcinogen: N-METHYL-N-NITROSOUREA, 684-93-5, Dose [Inhibitor]: 327 MG/KG IN DIET DAILY FOR 6 MO STARTING 1 WK AFTER FINAL CARCINOGEN DOSE (STUDY DURATION: 9 MO), Species: HAMSTER, Strain/Sex: SYRIAN/MALE, Target Tissue: Type of Lesion: TRACHEA: BENIGN EPITHELIAL NEOPLASM, Dose [Carcinogen]: 0.5% SOLUTION FOR 5 SECOND EXPOSURE 1/WK FOR 12 WK","6/63 (10%), 12/63 (19%), -90%, not significant"
same,"tumour outcome (control, treated, inhibition, significance)","Carcinogen: N-METHYL-N-NITROSOUREA, 684-93-5, Dose [Inhibitor]: 327 MG/KG IN DIET DAILY FOR 6 MO STARTING 1 WK AFTER FINAL CARCINOGEN DOSE (STUDY DURATION: 9 MO), Species: HAMSTER, Strain/Sex: SYRIAN/MALE, Target Tissue: Type of Lesion: TRACHEA: CARCINOMA, Dose [Carcinogen]: 0.5% SOLUTION FOR 5 SECOND EXPOSURE 1/WK FOR 12 WK","4/63 (6%), 12/63 (19%), -216%, p<0.05"
same,"tumour outcome (control, treated, inhibition, significance)","Carcinogen: N-METHYL-N-NITROSOUREA, 684-93-5, Dose [Inhibitor]: 327 MG/KG IN DIET DAILY FOR 6 MO STARTING 1 WK AFTER FINAL CARCINOGEN DOSE (STUDY DURATION: 9 MO), Species: HAMSTER, Strain/Sex: SYRIAN/MALE, Target Tissue: Type of Lesion: TRACHEA: EPITHELIAL NEOPLASM, Dose [Carcinogen]: 0.5% SOLUTION FOR 5 SECOND EXPOSURE 1/WK FOR 12 WK","10/63 (16%), 24/63 (38%), -138%, p<0.01"
same,"tumour outcome (control, treated, inhibition, significance)","Carcinogen: N-METHYL-N-NITROSOUREA, 684-93-5, Dose [Inhibitor]: 654 MG/KG DIET DAILY FOR 24 WK STARTING 5 D AFTER LAST DOSE OF CARCINOGEN (STUDY DURATION: 32 WK), Species: RAT, Strain/Sex: F344/MALE, Target Tissue: Type of Lesion: COLON: SARCOMA, Dose [Carcinogen]: 0.5 MG 2/WK FOR 8 WK","5/40 (13%), 1/40 (3%), 77%, not calculated"
same,"tumour outcome (control, treated, inhibition, significance)","Carcinogen: N-METHYL-N-NITROSOUREA, 684-93-5, Dose [Inhibitor]: 654 MG/KG DIET DAILY FOR 24 WK STARTING 5 D AFTER LAST DOSE OF CARCINOGEN (STUDY DURATION: 32 WK), Species: RAT, Strain/Sex: F344/MALE, Target Tissue: Type of Lesion: COLON: TUMOR, Dose [Carcinogen]: 0.5 MG 2/WK FOR 8 WK","60%, 65%, -8%, not significant"
same,"tumour outcome (control, treated, inhibition, significance)","Carcinogen: N-METHYL-N-NITROSOUREA, 684-93-5, Dose [Inhibitor]: 654 MG/KG DIET DAILY FOR 38 WK STARTING 5 D AFTER LAST DOSE OF CARCINOGEN (STUDY DURATION: 44 WK), Species: RAT, Strain/Sex: F344/MALE, Target Tissue: Type of Lesion: COLON: TUMOR, Dose [Carcinogen]: 0.5 MG 2/WK FOR 6 WK","62%, 62%, 0%, not significant"
same,"tumour outcome (control, treated, inhibition, significance)","Carcinogen: N-METHYL-N-NITROSOUREA, 684-93-5, Dose [Inhibitor]: 654 MG/KG DIET DAILY FOR 48 WK STARTING 5 D AFTER LAST DOSE OF CARCINOGEN (STUDY DURATION: 52 WK), Species: RAT, Strain/Sex: F344/MALE, Target Tissue: Type of Lesion: COLON: TUMOR, Dose [Carcinogen]: 0.5 MG 2/WK FOR 4 WK","31%, 30%, 3%, not significant"
same,"tumour outcome (control, treated, inhibition, significance)","Carcinogen: N-NITROBIS(2-OXOPROPYL)AMINE, 60559-38-4, Dose [Inhibitor]: 0.5 OR 1.0 MMOL/KG DIET DAILY STARTING 1 WK AFTER CARCINOGEN TREATMENT AND CONTINUING THROUGH THE END OF THE STUDY (STUD, Species: HAMSTER, Strain/Sex: SYRIAN/FEMALE, Target Tissue: Type of Lesion: LIVER: BENIGN TUMOR, Dose [Carcinogen]: 40 MG/KG BW ONCE","4/20 (20%), 17/37 (46%), -130%, not significant"
same,"tumour outcome (control, treated, inhibition, significance)","Carcinogen: N-NITROBIS(2-OXOPROPYL)AMINE, 60559-38-4, Dose [Inhibitor]: 0.5 OR 1.0 MMOL/KG DIET DAILY STARTING 1 WK AFTER CARCINOGEN TREATMENT AND CONTINUING THROUGH THE END OF THE STUDY (STUD, Species: HAMSTER, Strain/Sex: SYRIAN/FEMALE, Target Tissue: Type of Lesion: ND: TOTAL TUMOR, Dose [Carcinogen]: 40 MG/KG BW ONCE","17/20 (85%), 32/37 (86%), 1%, not significant"
same,"tumour outcome (control, treated, inhibition, significance)","Carcinogen: N-NITROBIS(2-OXOPROPYL)AMINE, 60559-38-4, Dose [Inhibitor]: 0.5 OR 1.0 MMOL/KG DIET DAILY STARTING 1 WK AFTER CARCINOGEN TREATMENT AND CONTINUING THROUGH THE END OF THE STUDY (STUD, Species: HAMSTER, Strain/Sex: SYRIAN/FEMALE, Target Tissue: Type of Lesion: PANCREAS: DUCTULAR ADENOMA, Dose [Carcinogen]: 10 MG/KG BW ONCE","5/23 (23%), 13/25 (52%), -126%, not significant"
same,"tumour outcome (control, treated, inhibition, significance)","Carcinogen: N-NITROBIS(2-OXOPROPYL)AMINE, 60559-38-4, Dose [Inhibitor]: 0.5 OR 1.0 MMOL/KG DIET DAILY STARTING 1 WK AFTER CARCINOGEN TREATMENT AND CONTINUING THROUGH THE END OF THE STUDY (STUD, Species: HAMSTER, Strain/Sex: SYRIAN/FEMALE, Target Tissue: Type of Lesion: PANCREAS: DUCTULAR ADENOMA, Dose [Carcinogen]: 40 MG/KG BW ONCE","12/20 (60%), 27/37 (73%), -22%, not significant"
same,"tumour outcome (control, treated, inhibition, significance)","Carcinogen: N-NITROBIS(2-OXOPROPYL)AMINE, 60559-38-4, Dose [Inhibitor]: 0.5 OR 1.0 MMOL/KG DIET DAILY STARTING 1 WK AFTER CARCINOGEN TREATMENT AND CONTINUING THROUGH THE END OF THE STUDY (STUD, Species: HAMSTER, Strain/Sex: SYRIAN/FEMALE, Target Tissue: Type of Lesion: PANCREAS: DUCTULAR CARCINOMA, Dose [Carcinogen]: 10 MG/KG BW ONCE","6/23 (27%), 6/25 (24%), 11%, not significant"
same,"tumour outcome (control, treated, inhibition, significance)","Carcinogen: N-NITROBIS(2-OXOPROPYL)AMINE, 60559-38-4, Dose [Inhibitor]: 0.5 OR 1.0 MMOL/KG DIET DAILY STARTING 1 WK AFTER CARCINOGEN TREATMENT AND CONTINUING THROUGH THE END OF THE STUDY (STUD, Species: HAMSTER, Strain/Sex: SYRIAN/MALE, Target Tissue: Type of Lesion: LIVER: BENIGN TUMOR, Dose [Carcinogen]: 40 MG/KG BW ONCE","5/24 (21%), 25/41 (62%), -195%, p<0.05"
same,"tumour outcome (control, treated, inhibition, significance)","Carcinogen: N-NITROBIS(2-OXOPROPYL)AMINE, 60559-38-4, Dose [Inhibitor]: 0.5 OR 1.0 MMOL/KG DIET DAILY STARTING 1 WK AFTER CARCINOGEN TREATMENT AND CONTINUING THROUGH THE END OF THE STUDY (STUD, Species: HAMSTER, Strain/Sex: SYRIAN/MALE, Target Tissue: Type of Lesion: ND: TOTAL TUMOR, Dose [Carcinogen]: 10 MG/KG BW ONCE","12/22 (54%), 24/31 (77%), -43%, not significant"
